Biological target: T1, hPARG (Homo sapiens, UniProt Q86W56)
T1 construct: made in house; host or cells: E. coli
Test: PARG enzymatic activity assay (HTRF)
Type: biochemical
Settings: C-terminal His6-tag hPARG 65 pM, biotinylated-NAD ribosylated PARP1 substrate 8 nM
Description: HTRF assay was used to measure the ability of compounds to inhibit the activity of […] in vitro. C-terminal His6—tag PARG expressed in E. coli was purified and stored at −80° C. in aliquots. Assay measurements were performed with 1×buffer comprising 50 mM Tris pH 7.4, 0.1 mg/mL BSA, 3 mM EDTA, 0.4 mM EGTA, 1 mM DTT, 50 mM KCl and 0.01% Tween 20. Compounds dissolved in DMSO were plated into a 384-well assay plate (PerkinElmer, Catalog #: 6008280) in duplicate using a dispenser (Labcyte, Echo 665), and tested on a 10-point 4-fold serial dilution. Add 5 μL Enzyme mix [hPARG (C-terminal His6—tag, 4.2 μM), 65 pM final] to the test wells. The plates were covered and left to incubate for 60 minutes at RT before the addition of 5 μL substrate mix [biotinylated-NAD ribosylated PARP1 (6.1 μM), 8 nM final] to initiate reaction. After incubating 10 minutes at RT, add 2.5 μL Streptavidin-Eu cryptate (Cisbio, Catalog #: 610SAKLA) and 2.5 μL Mab anti 6HIS-XL665 (Cisbio, Catalog #: 61HISXLA) to the plate, and incubate for 60 minutes at RT. Read on a multimode plate reader (PerkinElmer, Envision 2015) in time-resolved fluorescence (TRF) mode, with excitation at 337 nm and emission at both 620 nm and 665 nm. Average HTRF signal of high control (Wells with 1% DMSO) was calculated and as Vehicle Control (VC). Average HTRF signal of low control (no Enzyme) was calculated and as Positive control (PC).
IC50 values were determined by fitting the data to the standard 4 parameters with Hill Slope using GraphPad Prism software.

T1 sequence (Q86W56 whole entry): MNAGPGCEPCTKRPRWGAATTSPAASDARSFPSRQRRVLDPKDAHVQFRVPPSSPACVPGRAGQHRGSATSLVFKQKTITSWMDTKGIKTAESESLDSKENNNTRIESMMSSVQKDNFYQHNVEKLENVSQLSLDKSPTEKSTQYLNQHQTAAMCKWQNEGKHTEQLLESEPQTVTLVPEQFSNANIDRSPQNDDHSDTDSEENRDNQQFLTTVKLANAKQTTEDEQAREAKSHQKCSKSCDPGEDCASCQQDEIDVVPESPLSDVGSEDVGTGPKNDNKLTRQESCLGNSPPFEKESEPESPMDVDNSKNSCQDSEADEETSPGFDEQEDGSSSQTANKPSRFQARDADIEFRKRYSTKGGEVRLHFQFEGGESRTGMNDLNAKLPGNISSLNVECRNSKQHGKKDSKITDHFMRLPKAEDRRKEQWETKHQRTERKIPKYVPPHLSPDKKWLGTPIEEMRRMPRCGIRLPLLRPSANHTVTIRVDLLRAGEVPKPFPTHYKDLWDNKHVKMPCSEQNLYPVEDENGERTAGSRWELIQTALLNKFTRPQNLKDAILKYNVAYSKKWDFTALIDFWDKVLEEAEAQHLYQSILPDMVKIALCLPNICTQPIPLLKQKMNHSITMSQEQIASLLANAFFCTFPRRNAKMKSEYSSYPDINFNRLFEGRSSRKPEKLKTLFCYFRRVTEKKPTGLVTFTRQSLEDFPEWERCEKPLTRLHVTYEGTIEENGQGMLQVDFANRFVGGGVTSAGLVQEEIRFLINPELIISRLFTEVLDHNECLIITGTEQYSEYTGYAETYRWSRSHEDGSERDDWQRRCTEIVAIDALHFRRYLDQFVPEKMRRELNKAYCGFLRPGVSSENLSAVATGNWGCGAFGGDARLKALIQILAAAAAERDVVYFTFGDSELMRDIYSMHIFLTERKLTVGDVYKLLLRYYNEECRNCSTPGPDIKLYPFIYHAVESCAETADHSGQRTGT

Row | SMILES | IC50
1 | N#CC1(NS(=O)(=O)c2ccc3c4c(N5CCn6ncnc6C5)ncnc4n(-c4nnc(C(F)F)s4)c3c2)CC1 [Example 49, N-(1-Cyanocyclopropyl)-9-(5-(difluoromethyl)-1,3,4-thiadiazol-2-yl)-4-(5,6-dihydro-[1,2,4]triazolo[1,5-a]pyrazin-7(8H)-yl)-9H-pyrimido[4,5-b]indole-7-sulfonamide] | ≤ 100 nM
2 | CCN(CC)[C@@H]1CCN(c2ncnc3c2c2ccc(S(=O)(=O)NC4(C#N)CC4)cc2n3-c2nnc(C(F)F)s2)C[C@@H]1OC [Example 50, N-(1-Cyanocyclopropyl)-4-((3S,4R)-4-(diethylamino)-3-methoxypiperidin-1-yl)-9-(5-(difluoromethyl)-1,3,4-thiadiazol-2-yl)-9H-pyrimido[4,5-b]indole-7-sulfonamide] | ≤ 100 nM
3 | CCN(CC)[C@@H]1CCN(c2ncnc3c2c2ccc(S(=O)(=O)NC4(C#N)CC4)cc2n3-c2nnc(C(F)F)s2)CC1(F)F [Example 51, (R)-N-(1-Cyanocyclopropyl)-4-(4-(diethylamino)-3,3-difluoropiperidin-1-yl)-9-(5-(difluoromethyl)-1,3,4-thiadiazol-2-yl)-9H-pyrimido[4,5-b]indole-7-sulfonamide] | ≤ 100 nM
4 | CCN1CCCC12CCN(c1ncnc3c1c1ccc(S(=O)(=O)NC4(C#N)CC4)cc1n3-c1nnc(C(F)F)s1)CC2 [Example 52, N-(1-Cyanocyclopropyl)-9-(5-(difluoromethyl)-1,3,4-thiadiazol-2-yl)-4-(1-ethyl-1,8-diazaspiro[4.5]decan-8-yl)-9H-pyrimido[4,5-b]indole-7-sulfonamide] | ≤ 100 nM
5 | Cc1cnc2n1CCN(c1ncnc3c1c1ccc(S(=O)(=O)NC4(C#N)CC4)cc1n3-c1nnc(C(F)F)s1)C2 [Example 53, N-(1-Cyanocyclopropyl)-9-(5-(difluoromethyl)-1,3,4-thiadiazol-2-yl)-4-(3-methyl-5,6-dihydroimidazo[1,2-a]pyrazin-7(8H)-yl)-9H-pyrimido[4,5-b]indole-7-sulfonamide] | ≤ 100 nM
6 | CCc1cnc2n1CCN(c1ncnc3c1c1ccc(S(=O)(=O)NC4(C#N)CC4)cc1n3-c1nnc(C(F)F)s1)C2 [Example 54, N-(1-Cyanocyclopropyl)-9-(5-(difluoromethyl)-1,3,4-thiadiazol-2-yl)-4-(3-ethyl-5,6-dihydroimidazo[1,2-a]pyrazin-7(8H)-yl)-9H-pyrimido[4,5-b]indole-7-sulfonamide] | ≤ 100 nM
7 | Cc1nc2n(n1)CCN(c1ncnc3c1c1ccc(S(=O)(=O)NC4(C#N)CC4)cc1n3-c1nnc(C(F)F)s1)C2 [Example 55, N-(1-Cyanocyclopropyl)-9-(5-(difluoromethyl)-1,3,4-thiadiazol-2-yl)-4-(2-methyl-5,6-dihydro-[1,2,4]triazolo[1,5-a]pyrazin-7(8H)-yl)-9H-pyrimido[4,5-b]indole-7-sulfonamide] | ≤ 100 nM
8 | CN(C[C@@H]1CCOC1)c1ncnc2c1c1ccc(S(=O)(=O)NC3(C#N)CC3)cc1n2-c1nnc(C(F)F)s1 [Example 56, (S)-N-(1-Cyanocyclopropyl)-9-(5-(difluoromethyl)-1,3,4-thiadiazol-2-yl)-4-(methyl((tetrahydrofuran-3-yl)methyl)amino)-9H-pyrimido[4,5-b]indole-7-sulfonamide] | ≤ 100 nM
9 | CN(C[C@H]1CCOC1)c1ncnc2c1c1ccc(S(=O)(=O)NC3(C#N)CC3)cc1n2-c1nnc(C(F)F)s1 [Example 57, (R)-N-(1-Cyanocyclopropyl)-9-(5-(difluoromethyl)-1,3,4-thiadiazol-2-yl)-4-(methyl((tetrahydrofuran-3-yl)methyl)amino)-9H-pyrimido[4,5-b]indole-7-sulfonamide] | ≤ 100 nM
10 | CN(c1ncnc2c1c1ccc(S(=O)(=O)NC3(C#N)CC3)cc1n2-c1nnc(C(F)F)s1)C1COC1 [Example 58, N-(1-Cyanocyclopropyl)-9-(5-(difluoromethyl)-1,3,4-thiadiazol-2-yl)-4-(methyl(oxetan-3-yl)amino)-9H-pyrimido[4,5-b]indole-7-sulfonamide] | 100 to 1000 nM
11 | CN(CCn1ccnc1)c1ncnc2c1c1ccc(S(=O)(=O)NC3(C#N)CC3)cc1n2-c1nnc(C(F)F)s1 [Example 59, 4-((2-(1H-Imidazol-1-yl)ethyl)(methyl)amino)-N-(1-cyanocyclopropyl)-9-(5-(difluoromethyl)-1,3,4-thiadiazol-2-yl)-9H-pyrimido[4,5-b]indole-7-sulfonamide] | 100 to 1000 nM
12 | CN1CCN(CCN(C)c2ncnc3c2c2ccc(S(=O)(=O)NC4(C#N)CC4)cc2n3-c2nnc(C(F)F)s2)C1=O [Example 60, N-(1-Cyanocyclopropyl)-9-(5-(difluoromethyl)-1,3,4-thiadiazol-2-yl)-4-(methyl(2-(3-methyl-2-oxoimidazolidin-1-yl)ethyl)amino)-9H-pyrimido[4,5-b]indole-7-sulfonamide] | ≤ 100 nM
13 | CN(CCN1CCCC1=O)c1ncnc2c1c1ccc(S(=O)(=O)NC3(C#N)CC3)cc1n2-c1nnc(C(F)F)s1 [Example 61, N-(1-Cyanocyclopropyl)-9-(5-(difluoromethyl)-1,3,4-thiadiazol-2-yl)-4-(methyl(2-(2-oxopyrrolidin-1-yl)ethyl)amino)-9H-pyrimido[4,5-b]indole-7-sulfonamide] | 100 to 1000 nM
14 | CN(C)CCN(C)c1ncnc2c1c1ccc(S(=O)(=O)NC3(C#N)CC3)cc1n2-c1nnc(C(F)F)s1 [Example 62, N-(1-Cyanocyclopropyl)-9-(5-(difluoromethyl)-1,3,4-thiadiazol-2-yl)-4-((2-(dimethylamino)ethyl)(methyl)amino)-9H-pyrimido[4,5-b]indole-7-sulfonamide] | ≤ 100 nM
15 | CN(CCO)c1ncnc2c1c1ccc(S(=O)(=O)NC3(C#N)CC3)cc1n2-c1nnc(C(F)F)s1 [Example 63, N-(1-Cyanocyclopropyl)-9-(5-(difluoromethyl)-1,3,4-thiadiazol-2-yl)-4-((2-hydroxyethyl)(methyl)amino)-9H-pyrimido[4,5-b]indole-7-sulfonamide] | ≤ 100 nM
16 | CN(CC1COCCN1C)c1ncnc2c1c1ccc(S(=O)(=O)NC3(C#N)CC3)cc1n2-c1nnc(C(F)F)s1 (centres unmarked) [Example 64, N-(1-Cyanocyclopropyl)-9-(5-(difluoromethyl)-1,3,4-thiadiazol-2-yl)-4-(methyl((4-methylmorpholin-3-yl)methyl)amino)-9H-pyrimido[4,5-b]indole-7-sulfonamide] | ≤ 100 nM
17 | CN(C[C@@H]1COCCN1C)c1ncnc2c1c1ccc(S(=O)(=O)NC3(C#N)CC3)cc1n2-c1nnc(C(F)F)s1 [Example 65, (R)-N-(1-Cyanocyclopropyl)-9-(5-(difluoromethyl)-1,3,4-thiadiazol-2-yl)-4-(methyl((4-methylmorpholin-3-yl)methyl)amino)-9H-pyrimido[4,5-b]indole-7-sulfonamide] | ≤ 100 nM
18 | CN(C[C@H]1COCCN1C)c1ncnc2c1c1ccc(S(=O)(=O)NC3(C#N)CC3)cc1n2-c1nnc(C(F)F)s1 [Example 66, (S)-N-(1-Cyanocyclopropyl)-9-(5-(difluoromethyl)-1,3,4-thiadiazol-2-yl)-4-(methyl((4-methylmorpholin-3-yl)methyl)amino)-9H-pyrimido[4,5-b]indole-7-sulfonamide] | ≤ 100 nM
19 | CN(CC1CCCOC1)c1ncnc2c1c1ccc(S(=O)(=O)NC3(C#N)CC3)cc1n2-c1nnc(C(F)F)s1 (centres unmarked) [Example 68, N-(1-Cyanocyclopropyl)-9-(5-(difluoromethyl)-1,3,4-thiadiazol-2-yl)-4-(methyl((tetrahydro-2H-pyran-3-yl)methyl)amino)-9H-pyrimido[4,5-b]indole-7-sulfonamide] | ≤ 100 nM
20 | CN(CC1COCCO1)c1ncnc2c1c1ccc(S(=O)(=O)NC3(C#N)CC3)cc1n2-c1nnc(C(F)F)s1 (centres unmarked) [Example 69, 4-(((1,4-Dioxan-2-yl)methyl)(methyl)amino)-N-(1-cyanocyclopropyl)-9-(5-(difluoromethyl)-1,3,4-thiadiazol-2-yl)-9H-pyrimido[4,5-b]indole-7-sulfonamide] | ≤ 100 nM
21 | CN(c1ncnc2c1c1ccc(S(=O)(=O)NC3(C#N)CC3)cc1n2-c1nnc(C(F)F)s1)[C@H]1CCOC1 [Example 70, (S)-N-(1-Cyanocyclopropyl)-9-(5-(difluoromethyl)-1,3,4-thiadiazol-2-yl)-4-(methyl(tetrahydrofuran-3-yl)amino)-9H-pyrimido[4,5-b]indole-7-sulfonamide] | 100 to 1000 nM
22 | Cc1nc(C)n(CCN(C)c2ncnc3c2c2ccc(S(=O)(=O)NC4(C#N)CC4)cc2n3-c2nnc(C(F)F)s2)n1 [Example 71, N-(1-Cyanocyclopropyl)-9-(5-(difluoromethyl)-1,3,4-thiadiazol-2-yl)-4-((2-(3,5-dimethyl-1H-1,2,4-triazol-1-yl)ethyl)(methyl)amino)-9H-pyrimido[4,5-b]indole-7-sulfonamide] | > 1000 nM
23 | CN(CCN1CCCS1(=O)=O)c1ncnc2c1c1ccc(S(=O)(=O)NC3(C#N)CC3)cc1n2-c1nnc(C(F)F)s1 [Example 72, N-(1-Cyanocyclopropyl)-9-(5-(difluoromethyl)-1,3,4-thiadiazol-2-yl)-4-((2-(1,1-dioxidoisothiazolidin-2-yl)ethyl)(methyl)amino)-9H-pyrimido [4,5-b]indole-7-sulfonamide] | 100 to 1000 nM
